In publication PMC6017738, “A Comparative Pharmacokinetic Study by UHPLC-MS/MS of Main Active Compounds after Oral Administration of Zushima-Gancao Extract in Normal and Adjuvant-Induced Arthritis Rats” (Molecules : A Journal of Synthetic Chemistry and Natural …, 2018):

Experiments:
[1] = Pharmacokinetics in normal rats after oral administration of Zushima-Gancao extract (UHPLC-MS/MS of plasma); assay type: in vivo; settings: male, Sprague-Dawley, rat, oral Zushima-Gancao extract 10 mL/kg single dose, n = 6, mean ± SD
Experimental: (§1) The plasma concentration–time curves (C-T curves) of nine analytes are presented in Figure 2, and the corresponding pharmacokinetic parameters, including Cmax, Tmax, AUC (0–t), AUC (0–∞) (AUC: area under concentration-time curve), and t1/2, were obtained using DAS 3.0 pharmacokinetic software (Chinese Pharmacological Association, China). Statistical differences between groups were analyzed using Student’s t-tests, and p-values less than 0.05 were considered statistically significant.
(§2) The chromatography experiment was carried out using a UHPLC system (Thermo Fisher, San Jose, CA, USA), equipped with a Hypersil GOLD C18 column (100 mm × 2.1 mm, 3 μm, Thermo Fisher, San Jose, CA, USA) maintained at 35 °C. The mobile phase consisted of 0.05% formic acid in water (Solvent A) and acetonitrile (Solvent B), and the flow rate was 0.3 mL/min. In order to completely separate all the analytes, the 10 min gradient elution program was used as follows: 0–1 min, 10% B; 1–5 min, 10–90% B; 5–6 min, 90–100% B; 6–8 min, 100% B; 8–9 min, 100–10% B; 9–10 min, 10% B, and the sample injection volume was 3 μL.
(§3) Mass spectrometry detection was operated on TSQ Vantage triple-stage quadrupole mass spectrometer (Thermo Fisher, San Jose, CA, USA) equipped with an electrospray ionization (ESI) source. Quantification of the analytes was performed using selective reaction monitor (SRM) in the negative ionization mode. Spray voltage, sheath gas pressure, auxiliary gas pressure, vaporizer temperature, and capillary temperature were set as 3.0 kV, 45 arb, 25 arb, 450 °C, and 350 °C, respectively.
(§4) Male Sprague–Dawley (SD) rats weighing 180–220 g (SCXK-2012-0002) were supplied by Silaike Lab Animals Ltd. (Shanghai, China). They were all kept in a stable condition (temperature, 22 ± 2 °C; relative humidity, 45–60%) with 12 h light/dark cycles for five days before animal experiments.
(§5) Rats were randomly divided into normal and AA groups with six rats in each group. The arthritic model rats were prepared as our previous research [19]. AA rats were intracutaneously injected with 0.1 mL of FAC in the left hind footpad and normal rats were injected with sterile saline. The FAC solution was prepared as follows: bacillus calmette-guerin (BCG) was bathed in water at 80 °C for 30 min, and then dissolved in a liquid paraffin–lanolin mixture (3:2, v/v). Immediately prior to use, the FAC solution were sterilized for 30 min at 120 °C.
(§6) After model construction, the rats were fed for 20 days. All rats were fasted for 12 h before drug administration, with free access to water. Each rat was administered with Zushima-Gancao extract at a single dose of 10 mL/kg. Blood samples (approximately 0.3 mL) were collected into heparinized micro-centrifuge tubes from the postorbital venous plexus veins of rats at specific time points of 0, 0.08, 0.17, 0.33, 0.5, 1, 2, 3, 5, 8, 12, 24, and 36 h. All blood samples were centrifuged immediately at 5000 rpm for 6 min, and the plasma were obtained and stored at −80 °C until analysis.
(§7) A liquid–liquid extraction (LLE) method was applied to extract the compounds from thawed rat plasma samples, aliquots of 100 μL plasma sample were transferred into a 1.5 mL Eppendorf tube, and 10 μL of methanol, 10 μL of hydrochloric acid (2 mol/L), and 10 μL of IS (130 ng/mL) were added separately. The mixture was vortexed for 30 s, and 500 μL of ethyl acetate was added and mixed by vortexing for 10 min. The supernatant (about 450 μL) was transferred into another tube after centrifugation at 16,000 rpm for 10 min and then evaporated to dryness at 45 °C, 15 kPa in a Thermo SPD1010-230 SpeedVac Concentrator (Thermo Fisher, San Jose, CA, USA). The residue was dissolved in 100 μL of initial mobile phase by vortexing for 5 min, and a further centrifugation at 17,000 rpm for 10 min was applied after the residue was re-dissolved. The supernatant was injected into the UHPLC-MS/MS system for analysis.

[2] = Stability test of analytes in rat plasma (QC samples); assay type: physicochemical; settings: for 24 h Stability RE: autosampler at 4 °C for 24 h; for Short-Term Stability RE: room temperature for 4 h; for Freeze-Thaw Stability RE: three freeze-thaw cycles; for Long-Term Stability RE: −80 °C for a week
Experimental: Stability. To evaluate the stability of each component during analysis, QC samples at low, middle, and high concentrations (three samples for each concentration) were tested under different conditions, including placing QC samples in the autosampler at 4 °C for 24 h, at room temperature for 4 h, at −80 °C for a week, and three freeze-thaw cycles.

[3] = Pharmacokinetics in adjuvant-induced arthritis (AA) rats after oral administration of Zushima-Gancao extract (UHPLC-MS/MS of plasma); settings: for change of Cmax in AA rats versus normal rats: p < 0.05
Experimental: as §1, §2, §3, §4, §5, §6, §7

[4] = AA rats versus normal rats, oral Zushima-Gancao extract
[5] = male, Sprague-Dawley, rat, plasma, po, 10 mL/kg
[6] = male, Sprague-Dawley, rat, in vivo, po, 10 mL/kg

Structure (SMILES)	AUC(0-inf) [1] [ng·h/mL]	AUC(0-t) [1] [ng·h/mL]	Cmax [1] [ng/mL]	Tmax [1] [min]	half-life [1] [min]	24 h Stability RE ([2]; high concentration) [%]	Short-Term Stability RE ([2]; high concentration) [%]	Freeze-Thaw Stability RE ([2]; high concentration) [%]	Long-Term Stability RE ([2]; high concentration) [%]	24 h Stability RE ([2]; low concentration) [%]	Short-Term Stability RE ([2]; low concentration) [%]	Freeze-Thaw Stability RE ([2]; low concentration) [%]	Long-Term Stability RE ([2]; low concentration) [%]	24 h Stability RE ([2]; middle concentration) [%]	Short-Term Stability RE ([2]; middle concentration) [%]	Freeze-Thaw Stability RE ([2]; middle concentration) [%]	Long-Term Stability RE ([2]; middle concentration) [%]	AUC(0-inf) [3, 5] [ng·h/mL]	AUC(0-t) [3, 5] [ng·h/mL]	Cmax [3, 5] [ng/mL]	other results
O=c1ccc2ccc(O)c(O)c2o1 [DPH, daphnetin]	256 ± 54.8	246 ± 53.9	214 ± 32.5	14.4 ± 6.6	204 ± 57.6	−11.8	−12.42	−14.04	−12.23	−13.85	−7.83	−6.29	−12.07	−13.73	−12.68	−8.25	−15	167 ± 49	165 ± 49.4	201 ± 108	decrease of AUC (0–∞) compared with the normal group [3, 4]: 34.56%; change of t1/2 in AA rats versus normal rats ([3]; AA versus normal rats): remarkable decrease; Tmax [3, 5]: 12 ± 4.2 min; half-life [3, 5]: 124 ± 15.6 min
COc1cc2cc(Oc3ccc4ccc(=O)oc4c3)c(=O)oc2cc1O [DR, daphnoretin]	163 ± 78.7	131 ± 58.1	14.4 ± 3.31	23.4 ± 18.6	872 ± 175	−6.11	−5.38	−9.71	−13.85	−11.79	−13.63	0.05	−12.79	−11.33	−13.99	−14.22	−14.41	154 ± 79.8	86.2 ± 33.8	7.06 ± 3.82	change of Cmax in AA rats versus normal rats ([3]; AA versus normal rats): decreased remarkably; Tmax [3, 5]: 25.2 ± 18.6 min; half-life [3, 5]: 1700 ± 563 min
CC1(C)[C@@H](O)CC[C@]2(C)[C@H]3C(=O)C=C4[C@@H]5C[C@@](C)(C(=O)O)CC[C@]5(C)CC[C@@]4(C)[C@]3(C)CC[C@@H]12 [GA, glycyrrhetinic acid]	1960 ± 1260	1940 ± 1240	167 ± 93	520 ± 97.8	233 ± 77.4	14.35	13.05	–	9.57	13.49	2.08	–	0.04	14.1	−3.38	–	5.44	4330 ± 1860	4260 ± 1860	418 ± 296	increase of AUC (0–∞) in model rats compared to normal rats [3, 4]: 2.2 fold; increase of AUC(0–t) in model rats compared to normal rats [3, 4]: 2.2 fold; Tmax [3, 5]: 560 ± 124 min; half-life [3, 5]: 296 ± 146 min
O=C(/C=C/c1ccc(O[C@@H]2O[C@H](CO)[C@@H](O)[C@H](O)[C@H]2O)cc1)c1ccc(O)cc1O [ILQ, isoliquiritin]	6.74 ± 0.6	6.72 ± 0.6	8.92 ± 1.68	10.2 ± 5.4	31.2 ± 12	6.64	3.29	4.51	2.66	4.99	9.08	−2.51	7.49	5.33	12.35	−6.3	5.37	–	–	–	decrease of AUC (0–∞) compared with the normal group [3, 4]: 39.02%; Tmax ([3]; AA rats, oral Zushima-Gancao extract 10 mL/kg single dose, plasma, n = 6, mean ± SD): 21.6 ± 7.8 min; change of Tmax in AA rats versus normal rats ([3]; AA versus normal rats): obvious increase; change of Cmax in AA rats versus normal rats ([3]; AA versus normal rats): decreased remarkably; AUC(0-inf) [3, 6]: 4.11 ± 1.12 ng·h/mL; AUC(0-t) [3, 6]: 4.04 ± 1.2 ng·h/mL; Cmax [3, 6]: 4.63 ± 3.64 ng/mL; half-life [3, 6]: 56.4 ± 49.8 min

Continued, in another order:

AUC(0-inf) [1] [ng·h/mL]	AUC(0-t) [1] [ng·h/mL]	Cmax [1] [ng/mL]	Tmax [1] [min]	half-life [1] [min]	24 h Stability RE ([2]; high concentration) [%]	Short-Term Stability RE ([2]; high concentration) [%]	Freeze-Thaw Stability RE ([2]; high concentration) [%]	Long-Term Stability RE ([2]; high concentration) [%]	24 h Stability RE ([2]; low concentration) [%]	Short-Term Stability RE ([2]; low concentration) [%]	Freeze-Thaw Stability RE ([2]; low concentration) [%]	Long-Term Stability RE ([2]; low concentration) [%]	24 h Stability RE ([2]; middle concentration) [%]	Short-Term Stability RE ([2]; middle concentration) [%]	Freeze-Thaw Stability RE ([2]; middle concentration) [%]	Long-Term Stability RE ([2]; middle concentration) [%]	AUC(0-inf) [3, 5] [ng·h/mL]	AUC(0-t) [3, 5] [ng·h/mL]	Cmax [3, 5] [ng/mL]	Structure (SMILES)	other results
267 ± 49.7	248 ± 47.8	29 ± 10.5	34.8 ± 21	523 ± 289	13.22	13.85	14.36	9.2	11.79	10.26	10.89	11.48	11.8	10.68	14.3	9.96	187 ± 64.6	184 ± 61.7	24.9 ± 7.81	CC1(C)[C@@H](O[C@H]2O[C@H](C(=O)O)[C@@H](O)[C@H](O)[C@H]2O[C@@H]2O[C@H](C(=O)O)[C@@H](O)[C@H](O)[C@H]2O)CC[C@]2(C)[C@H]3C(=O)C=C4[C@@H]5C[C@@](C)(C(=O)O)CC[C@]5(C)CC[C@@]4(C)[C@]3(C)CC[C@@H]12 [GL, glycyrrhizin]	decrease of AUC (0–∞) compared with the normal group [3, 4]: 29.89%; change of Tmax in AA rats versus normal rats ([3]; AA versus normal rats): obvious increase; Tmax [3, 5]: 290 ± 158 min; half-life [3, 5]: 293 ± 182 min
148 ± 24.9	142 ± 24.4	193 ± 29.3	13.2 ± 4.8	172 ± 116	1.39	3.09	2.64	−0.05	−1.43	−13.86	−13.48	−10.07	−0.85	−5.72	−1.27	−1.8	131 ± 29.1	127 ± 26.8	179 ± 98	O=c1ccc2ccc(O)cc2o1 [HDC, 7-hydroxycoumarin]	Tmax [3, 5]: 13.2 ± 4.8 min; half-life [3, 5]: 151 ± 109 min
12.4 ± 6.97	8.89 ± 3.12	2.77 ± 0.83	8.4 ± 3	64.8 ± 40.2	10.13	12.09	7.59	13.23	8.75	−3.23	2.53	−11.29	10.08	11.76	12.3	12.68	8.48 ± 3.04	8.25 ± 2.9	1.92 ± 0.55	O=C(/C=C/c1ccc(O)cc1)c1ccc(O)cc1O [ILG, isoliquiritigenin]	change of Tmax in AA rats versus normal rats ([3]; AA versus normal rats): obvious increase; Tmax [3, 5]: 222 ± 126 min; half-life [3, 5]: 83.4 ± 39 min
170 ± 62.5	169 ± 62.4	23.9 ± 3.72	232 ± 119	99.6 ± 26.4	8.56	1.5	6.75	3.89	6.72	9.76	7.22	2.87	8.15	11.16	7.96	0.58	194 ± 84.4	193 ± 83.2	29.7 ± 10.7	O=C1C[C@@H](c2ccc(O)cc2)Oc2cc(O)ccc21 [LG, liquiritigenin]	Tmax [3, 5]: 282 ± 151 min; half-life [3, 5]: 138 ± 57 min
45.5 ± 3.9	45.5 ± 3.89	58.8 ± 12.5	–	28.2 ± 9	4.89	5.23	7.92	7.57	2.03	−9.95	13.76	8.14	3.31	0.14	−5.95	−0.13	34.4 ± 8.89	33.1 ± 6.8	30.1 ± 13.8	O=C1C[C@@H](c2ccc(O[C@@H]3O[C@H](CO)[C@@H](O)[C@H](O)[C@H]3O)cc2)Oc2cc(O)ccc21 [LQ, liquiritin]	decrease of AUC (0–∞) compared with the normal group [3, 4]: 24.57%; change of Cmax in AA rats versus normal rats ([3]; AA versus normal rats): decreased remarkably; Tmax [3, 5]: 12.6 ± 6 min; half-life [3, 5]: 45 ± 39 min
